Test [1] deals with Drosophila melanogaster L. Kind of test: Drosophila test (compound in agar based food, pupae which fail in ecdysis). It counts as in vivo. The following applies: Table I, in artificial agar based food, pupae failing in ecdysis. How it is done:
(§1) The biological tests are examplified by tests on the yellow mealworm, Tenebrio molitor L, Galleria mellonella L, Culex pipiens L, Aedes aegypti L and Drosophila melanogaster L.
Drosophila test: One ml of acetone solution of the compound to be tested is mixed with an artificial agar based food mixture just before this solidifies. Ten less than one day old adult flies -- five of each sex -- are added, and all abnormalities observed for two generations. Juvenile hormone activity is especially noted in the pupae which fail in ecdysis. EC50 -eclos. is given in ppm.

The subject of test [2] is Culex pipiens L. In words: Culex test (mature larvae, loss of 50% of test animals). It counts as in vivo. The conditions noted are these: Table I, read-out: IC-50 eclos. On the procedure: The biological tests are examplified by tests on the yellow mealworm, Tenebrio molitor L, Galleria mellonella L, Culex pipiens L, Aedes aegypti L and Drosophila melanogaster L. Culex test: The compounds are tested on mature larvae. The concentration (IC-50 eclos.) is given in ppm.

Test [3] deals with Aedes aegypti L. In words: Aedes test (same test as for Culex). It counts as in vivo. The conditions noted are these: Table I, mature larvae, loss of 50% of test animals, read-out: IC-50 eclos. On the procedure: as §1
Culex test: The compounds are tested on mature larvae. The concentration (IC-50 eclos.) is given in ppm.
Aedes test: The same test as for Culex.

Test [4] relates to Tenebrio molitor L. Kind of test: Tenebrio test (topical application to pupae, morphological inhibition of adult characters). It counts as in vivo, Tenebrio molitor L (yellow mealworm). The conditions noted are these: for ID-50 morph.: Table I, topical, acetone solution, 0.5 to 2 hours old pupae (150 mg), 27° C, 70% RH; for ID 50 morph.: Table II, compounds of the formula I, Tenebrio. On the procedure:
as §1
Tenebrio test: The material in question is applied topically to the abdomen of 0.5 to 2 hours old pupae of the said species, as a solution in acetone. The pupae are held at 27° C and 70% RH, ecdysis occuring 5 to 7 days later. The degree of inhibition of adult characters is referred to an arbitrary scale, where a morphologically perfect adult is given the character 0%, and a perfect second pupae 100%. In Table 1 is given the morphological inhibition dose 50% (ID 50 morph.) for some of the chemicals invented, in μg per standard pupa (150 mg). ID 50 morph. refers to specimens showing predominantly adult characters in the front part, pupal characters in the abdomen.
ID50 morph is as said above the dose causing development of individuals showing predominantly adult characters in the front part and pupal characters in the abdomen. It is known that ID50 -doses in general are 10 times greater than ED50 -doses.

In the case of `CC(C)=CCC/C(C)=C/COc1ccc(C)nc1` [Compound 1, 3,7-dimethyl-1-(6'-methyl-3'-pyridyl-oxy)-2,6-octadiene], in test [1], the EC-50 eclos is reported as above 100 ppm. Further, the IC50 for inhibition of adult emergence (eclosion) in test [2] was found to be 0.5 µg/mL. For the same compound, the IC50 (inhibition of eclosion) in test [3] was found to be 0.5 µg/mL. Further, in test [4], the ID-50 morph. was 0.02 μg/pupa and the “ID 50 morph.” value is listed as 0,02 μg/150 mg pupa. With `C/C(=C\COc1ccc(C)nc1)CCC1OC1(C)C` (centres unmarked) [Compound 2, 6,7-epoxy-3,7-dimethyl-1-(6'-methyl-3'-pyridyloxy)-2-octene], the IC50 (inhibition of eclosion) in test [3] stood at 0.1 µg/mL. In test [4], the ID-50 morph. is recorded as 0.002 μg/pupa.

Turning to `CCOC(C)(C)CCC/C(C)=C/COc1ccc(C)nc1` [Compound 3, 7-ethoxy-3,7-dimethyl-1-(6'-methyl-3'-pyridyloxy)-2-octene], the IC50 for inhibition of adult emergence (eclosion) in test [2] was below 10 µg/mL. In test [4], the ID-50 morph. was determined as 0.001 μg/pupa.

In turn, `C/C(=C\COc1ccc(C)nc1)CCCC(C)(C)O` [Compound 4, 7-hydroxy-3,7-dimethyl-1-(6'-methyl-3'-pyridyloxy)-2-octene] displayed an ID-50 morph. in test [4] of 4.0 μg/pupa. Take `CC(C)=CCC/C(C)=C/CNc1cccnc1` [Compound 5, N,3'-3,7-dimethyl-2,6-octadienyl-1-(3'-a-minopyridine)]: the IC50 for inhibition of adult emergence (eclosion) in test [2] was found to be 10 µg/mL. In test [4], this compound displayed an ID-50 morph. of 40.0 μg/pupa. As for `CC(C)=CCCC(C)=CCOc1cccnc1` [Compound 6, 3,7-Dimethyl-1-(3'-pyridyloxy)-2,6-octadiene], in test [4], the ID-50 morph. stood at 3.0 μg/pupa. In test [1], `CCc1ccc(OCC=C(C)CCC=C(C)C)cn1` [Compound 7, 3,7-Dimethyl-1-(6'-ethyl-3'-pyridyloxy)-2,6-octadiene] showed an EC-50 eclos above 100 ppm. Moreover, the IC50 for inhibition of adult emergence (eclosion) in test [2] was determined as 0.05 µg/mL. The ID-50 morph. in test [4] worked out at 0.005 μg/pupa.

Compound `CC(C)=CCCC(C)=CCOc1ccc(C(C)C)nc1` [Compound 8, 3,7-Dimethyl-1-(6'-isopropyl-3'-pyridyloxy)-2,6-octadiene] returned an ID-50 morph. in test [4] of 0.004 μg/pupa.

For `COc1ccc(OCC=C(C)CCC=C(C)C)cn1` [Compound 9, 3,7-Dimethyl-1-(6'-methoxy-3'-pyridyloxy)-2,6-acetadiene], in test [4], the ID-50 morph. stood at 0.02 μg/pupa and the “ID 50 morph.” value was 0,02 μg/150 mg pupa. In test [4], `CCC(C)=CCCC(=CCOc1ccc(C)nc1)CC` [Compound 10, 3-Ethyl-7-methyl-1l-(6'-methyl-3'-pyridyloxy)-2,6-nonadiene] had an ID-50 morph. of 0.002 μg/pupa.

As to `CCC(C)=CCCC(=CCOc1ccc(CC)nc1)CC` [Compound 11, 3-EThyl-7-methyl-1-(6'-ethyl-3'-pyridyloxy)-2,6-nonadiene], the ID-50 morph. in test [4] is 0.001 μg/pupa. On the same count and under the same terms, with `CC(=CCOc1cccnc1)CCC1OC1(C)C` (centres unmarked) [Compound 12, 6,7-Epoxy-3,7-dimethyl-1l-(3'-pyridyloxy)-2-ocetene] the figure was 0.2 μg/pupa. Turning to `CCc1ccc(OCC=C(C)CCC2OC2(C)C)cn1` (centres unmarked) [Compound 13, 6,7-Epoxy-3,7-dimethyl-1l-(6'-ethyl-3'-pyridyloxy)-2l-octene], in test [1], the EC-50 eclos is reported as above 100 ppm. Further, the IC50 for inhibition of adult emergence (eclosion) in test [2] was found to be 0.005 µg/mL. Besides, in test [3], the IC50 (inhibition of eclosion) worked out at 0.1 µg/mL. In test [4], this compound registered an ID-50 morph. of 0.0001 μg/pupa. For the compound `CCC(=CCOc1ccc(C)nc1)CCC1OC1(C)CC` (centres unmarked) [Compound 14, 6,7-Epoxu-3-ethyl-7-methyl-1-(6'-methyl-3'-pyridyloxy)-2-nonene], in test [4], the ID-50 morph. worked out at 0.002 μg/pupa. In turn, `CCC(=CCOc1ccc(CC)nc1)CCC1OC1(C)CC` (centres unmarked) [Compound 15, 6,7 Epoxy-3-ethyl-7-methyl-1-(6'-ethyl-3'-pyridyloxy)-2l-nonene] registered an ID-50 morph. in test [4] of 0.0001 μg/pupa. In test [4], `CCOC(C)(C)CCCC(C)=CCOc1cccnc1` [Compound 16, 7-Ethoxy-3,7-dimethyl-1-(3'-pyridyloxy)-2-octene] had an ID-50 morph. of 0.009 μg/pupa. Still for that read-out and setting: with `COc1ccc(NCC=C(C)CCC=C(C)C)cn1` [Compound 17, N, 3'-3,7-Dimethyl-2,6-octadienlyl-(6'methoxy-3'-aminopyridin)] the figure was 0.4 μg/pupa; with `CCC(C)=CCCC(=CCOc1cccnc1)CC` [Compound 18, 3-Ethyl-7-methyl-1-(3'-pyridyloxy)-2,6-nonadiene], 0.2 μg/pupa. Still for that read-out and setting: the value for `CCC(=CCOc1cccnc1)CCC1OC1(C)CC` (centres unmarked) [Compound 19, 6,7-Epoxy-3-ethyl-7-methyl-1-(3'-pyridyloxy)-2-nonene] was 0.02 μg/pupa. In test [4], `COC(C)(C)CCCC(C)=CCOc1cccnc1` [Compound 20, 7-Methoxy-3,7-dimethyl-1l-(3'-pyridyloxy)-2-ocetene] registered an ID-50 morph. of 1.0 μg/pupa. On to `COC(C)(C)CCCC(C)=CCOc1ccc(C)nc1` [Compound 21, 7-Metoxy-3,7-dimethyl-1-(6'-methyl-3'-pyridyloxy)-2-octene], for which the IC50 for inhibition of adult emergence (eclosion) in test [2] was below 10 µg/mL. In addition, the IC50 (inhibition of eclosion) in test [3] stood at 1 µg/mL. This compound also came in with an ID-50 morph. in test [4] of 1.0 μg/pupa.

In test [4], `CCOC(C)(CC)CCCC(=CCOc1cccnc1)CC` (centres unmarked) [Compound 22, 7-Ethoxy-3-ethyl-7-methyl-1-(3'-pyridyloxy)-2-nonene] had an ID-50 morph. of 0.01 μg/pupa. With `CCOC(C)(CC)CCCC(=CCOc1ccc(C)nc1)CC` (centres unmarked) [Compound 23, 7-Ethoxy-3-ethyl-7-methyl-1l-(6'-methyl-3'-pyridyloxy)-2-nonene], the IC50 for inhibition of adult emergence (eclosion) in test [2] is 0.5 µg/mL. The compound further returned an ID-50 morph. in test [4] of 0.001 μg/pupa.

On to `CC(C)=CCCC(C)=CCOc1ccc(C)nc1[N+](=O)[O-]` [Compound 24, 3,7-Dimethyl-1l-(2'-nitro-6'-methyl-3'-pyridyloxy)-2,6-octadiene], for which the IC50 for inhibition of adult emergence (eclosion) in test [2] was above 10 µg/mL. The same compound had an ID-50 morph. in test [4] of 75. μg/pupa. In test [4], `CC(C)=CCCC(C)=CCOc1cccnc1CO` [Compound 25, 3,7-Dimethyl-1-(2'-hydroxymethyl-3'-pyridyloxy)-2,6-octadiene] gave an ID-50 morph. of 10. μg/pupa. Same read-out and setting: with `CC(C)=CCCC(C)=CCOc1cccnc1C` [Compound 26, 3,7 Dimethyl-1-(2'-methyl-3'-pyridyloxy)-2,6-octadiene] the figure was 10. μg/pupa. `CCOC(C)(C)CCCC(C)=CCOc1ccc(CC)nc1` [Compound 27, 7-Ethoxy-3,7-dimethyl-1-(6'-ethyl-3'-pyridyloxy)-2-octene] displayed an EC-50 eclos in test [1] above 100 ppm. Also, in test [2], the IC50 for inhibition of adult emergence (eclosion) was below 1 µg/mL. In addition, in test [4], the ID-50 morph. stood at 0.0001 μg/pupa. Turning to `CCc1ccc(OCC=C(C)CCCC(C)(C)OC)cn1` [Compound 28, 7-Methoxy-3,7-dimethyl-1-(6'-ethyl-3'-pyridyloxy)-2-octene], the ID-50 morph. in test [4] is listed as 0.001 μg/pupa. In turn, `CCC(C)=CCCC(C)=CCOc1ccc(CC)nc1` [Compound 29, 3,7-Dimethyl-1-(6'-ethyl-3'-pyridyloxy)-2,6-nonadiene] registered an EC-50 eclos in test [1] above 100 ppm. Moreover, the ID-50 morph. in test [4] is given as 0.02 μg/pupa. Consider `CC(C)=CCCC(C)=CCOc1ccc(C)nc1CO` [Compound 31, 3,7-Dimethyl-1-(2'-hydroxymethyl-6'-methyl-3'pyridyloxy)-2,6-octadiene], for which, in test [2], the IC50 for inhibition of adult emergence (eclosion) was above 10 µg/mL. The ID-50 morph. in test [4] is given as 10 μg/pupa. Taken in the same sequence, the figures for `CC(C)=CCCC(C)CCOc1cccnc1` (centres unmarked) [Compound 32, 3,7-Dimethyl-1-(3'-pyridyloxy)-6-octene] were 0.2 µg/mL and 5. μg/pupa.

As to `CC(C)=CCCC(C)CCOc1ccc(C)nc1` (centres unmarked) [Compound 34, 3,7-dimethyl-1-(6'-methyl-3'-pyridyloxy)-6-octene], the IC50 for inhibition of adult emergence (eclosion) in test [2] turned out to be 0.5 µg/mL. Moreover, the ID-50 morph. in test [4] is 0.4 μg/pupa. In test [4], `Cc1ccc(OCCC(C)CCC2OC2(C)C)cn1` (centres unmarked) [Compound 35, 6,7-epoxy-3,7-dimethyl-1-(6'-methyl-3'pyridyloxy)-octane] registered an ID-50 morph. of 0.05 μg/pupa. For `CCOC(C)(C)CCCC(C)CCOc1ccc(C)nc1` (centres unmarked) [Compound 36, 7-Ethoxy-3,7-dimethyl-1-(6'-methyl-3'-pyridyloxy)-octane], in test [1], the EC-50 eclos is above 100 ppm. Further, the ID-50 morph. in test [4] came to 0.05 μg/pupa.

`CCc1ccc(OCCC(C)CCC=C(C)C)cn1` (centres unmarked) [Compound 37, 3,7-dimethyl-1-(6'-ethyl-3'-pyridyloxy)-6-octene]: the EC-50 eclos in test [1] was above 100 ppm. The compound further registered an ID-50 morph. in test [4] of 0.2 μg/pupa. In test [1], `CCc1ccc(OCCC(C)CCCC(C)(C)OC)cn1` (centres unmarked) [Compound 40, 7-Methoxy-3,7-dimethyl-1l-(6'-ethyl-3'-pyridyloxy)-octane] gave an EC-50 eclos above 100 ppm. For the same compound, the ID-50 morph. in test [4] was 0.02 μg/pupa.

For the origin of these results see patent US4061757A, “Compounds having juvenile hormone activity” (A/S Cheminova, priority 1971, dated 1977).
